Measurements from US8710198B2, “Caprazene as a novel compound and derivatives thereof, and caprazol as a novel compound and derivatives thereof” (Meiji Seika Pharma Co., Ltd., priority 2003, dated 2014).

Experiments:
bacteria = test: Antibacterial activity; format: cell-based; conditions: statement in words
enzyme MraY = enzyme MraY (Escherichia coli, UniProt P0A6W3); conditions: statement in words
[1] = test system: Mycobacterium smegmatis ATCC607; test: Minimum growth inhibitory concentration on agar culture medium with 1% glycerine by serial dilution method; format: cell-based; conditions: agar culture medium with the addition of 1% glycerine
Procedure: (§1) Minimum growth inhibitory concentrations (mcg/ml) of caprazene-1′″-amide derivatives of the formula (II) against some of microorganisms were measured on an agar culture medium by a serial dilution method according to the standard method as provided by Japanese Society of Chemotherapy. For the cultivation of Mycobacterium smegmatis (one of […]), however, there was used an agar culture medium with the addition of 1% glycerine (the same applies to in the following tests).
(§2) Minimum growth inhibitory concentrations (mcg/ml) of some of the caprazene-1′″-ester derivative of the formula (III) against some of microorganisms were measured on an agar culture medium by a serial dilution method according to the standard method as provided by Japanese Society of Chemotherapy.
(§3) Minimum growth inhibitory concentrations (mcg/ml) of some of the caprazol-1′″-amide derivative of the formula (V) against a variety of microorganisms were measured on an agar medium by a serial dilution method according to the standard method as provided by Japanese Society of Chemotherapy.
as §3, with “caprazol-1′″-amide-3′″-ester” for “caprazol-1′″-amide”, “(VI)” for “(V)”
as §3, with “caprazol-3′″-ester derivative or caprazol-1′″-ester-3′″-ester” for “caprazol-1′″-amide”, “(VII)” for “(V)”

Micrococcus luteus FDA16 = test: Minimum growth inhibitory concentration on agar culture medium by serial dilution method (Japanese Society of Chemotherapy); format: cell-based
Procedure: as §1, §2, §3
as §3, with “caprazol-1′″-amide-3′″-ester” for “caprazol-1′″-amide”, “(VI)” for “(V)”
as §3, with “caprazol-3′″-ester derivative or caprazol-1′″-ester-3′″-ester” for “caprazol-1′″-amide”, “(VII)” for “(V)”
(§4) Minimum growth inhibitory concentrations (mcg/ml) of some of the derivative of the formula (VIII) against a variety of microorganisms were measured on an agar medium by a serial dilution method according to the standard method as provided by Japanese Society of Chemotherapy.

[2] = test system: Staphylococcus aureus FDA209P; test: as above; format: cell-based
Procedure: as §1, §2, §3
as §4, with “of the caprazol-1′″-amide-3′″-ester derivative of” for “of the derivative of”, “the formula (VI) against a” for “the formula (VIII) against a”
as §4, with “of the caprazol-3′″-ester derivative or caprazol-1′″-ester-3′″-ester derivative of” for “of the derivative of”, “the formula (VII) against a” for “the formula (VIII) against a”
as §4

[3] = test system: Staphylococcus aureus ATCC607; test: Minimum growth inhibitory concentration on agar medium by serial dilution method, Table 14; format: cell-based
Procedure: as §1, §4

acid-fast bacteria = conditions: statement in words, WO 01/12643A1 / EP 1211259A1; cited from earlier work

Chain of enzyme MraY (P0A6W3 whole entry): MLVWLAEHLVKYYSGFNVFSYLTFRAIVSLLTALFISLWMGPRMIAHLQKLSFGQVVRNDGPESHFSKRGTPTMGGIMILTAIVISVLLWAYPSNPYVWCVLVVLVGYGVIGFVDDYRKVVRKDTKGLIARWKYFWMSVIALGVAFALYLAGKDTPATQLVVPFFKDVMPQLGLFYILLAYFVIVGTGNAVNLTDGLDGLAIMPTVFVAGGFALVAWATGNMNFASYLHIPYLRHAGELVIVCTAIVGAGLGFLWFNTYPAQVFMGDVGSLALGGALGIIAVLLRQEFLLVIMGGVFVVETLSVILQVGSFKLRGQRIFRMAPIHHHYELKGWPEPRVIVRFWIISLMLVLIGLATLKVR

Compound | antibacterial activity (bacteria) | inhibitory activity against enzyme MraY (enzyme MraY) | Minimum growth inhibitory concentration (mcg/ml) against bacteria Mycobacterium smegmatis ATCC607 [1] [µg/mL] | Minimum growth inhibitory concentration (mcg/ml) against bacteria Micrococcus luteus FDA16 (Micrococcus luteus FDA16) [µg/mL] | Minimum growth inhibitory concentration (mcg/ml) against bacteria Staphylococcus aureus FDA209P [2] [µg/mL] | Minimum growth inhibitory concentration (mcg/ml) against bacteria Staphylococcus aureus ATCC607 [3] [µg/mL] | antibacterial activities against acid-fast bacteria (acid-fast bacteria)
CN1C(=O)[C@H](C(O[C@@H]2O[C@H](CN)[C@@H](O)[C@H]2O)[C@H]2O[C@@H](n3ccc(=O)[nH]c3=O)[C@H](O)[C@@H]2O)N(C)CC=C1C(=O)O (stereo partly shown) [Caprazene, caprazene] | no antibacterial activity | inhibitory activity against enzyme MraY |  |  |  |  | 
CCCCCCCCCCNC(=O)C1C(OC(=O)CCCCCCCCCC)CN(C)C(C(OC2OC(CN)C(O)C2O)C2OC(n3ccc(=O)[nH]c3=O)C(O)C2O)C(=O)N1C (stereo not shown) [Compound VI-E] |  |  | 6.25 | 6.25 | 12.5 |  | 
CCCCCCCCCCCNC(=O)C1C(OC(=O)CCCCCCCCCCC)CN(C)C(C(OC2OC(CN)C(O)C2O)C2OC(n3ccc(=O)[nH]c3=O)C(O)C2O)C(=O)N1C (stereo not shown) [Compound VI-F] |  |  | 6.25 | 3.13 | 12.5 |  | 
CCCCCCCCCCCCNC(=O)C1C(OC(=O)CCCCCCCCCCC)CN(C)C(C(OC2OC(CN)C(O)C2O)C2OC(n3ccc(=O)[nH]c3=O)C(O)C2O)C(=O)N1C (stereo not shown) [Compound VI-G, caprazol-1′″-dodecylamide-3′″-dodecanoylester derivative] |  |  | 6.25 | 3.13 | 25 |  | 
CCCCCCCCCCCC(=O)OC1CN(C)C(C(OC2OC(CN)C(O)C2O)C2OC(n3ccc(=O)[nH]c3=O)C(O)C2O)C(=O)N(C)C1C(=O)NC1CCCCCCCCCCC1 (stereo not shown) [Compound VI-Q] |  |  | 6.25 | 3.13 | 12.5 |  | 
CCCCCCCCC=CCCCCCCCCNC(=O)C1C(OC(=O)CCCCCCCCCCC)CN(C)C(C(OC2OC(CN)C(O)C2O)C2OC(n3ccc(=O)[nH]c3=O)C(O)C2O)C(=O)N1C (stereo not shown) [Compound VI-R] |  |  | 6.25 | 3.13 | 25 |  | 
CCCCCCC(=O)OC1CN(C)C(C(OC2OC(CN)C(O)C2O)C2OC(n3ccc(=O)[nH]c3=O)C(O)C2O)C(=O)N(C)C1C(=O)O (stereo not shown) [Compound VII-A] |  |  | 1.56 | >50 | 25 |  | 
CCCCCCCC(=O)OC1CN(C)C(C(OC2OC(CN)C(O)C2O)C2OC(n3ccc(=O)[nH]c3=O)C(O)C2O)C(=O)N(C)C1C(=O)O (stereo not shown) [Compound VII-B] |  |  | 1.56 | >50 | 12.5 |  | 
CCCCCCCCC(=O)OC1CN(C)C(C(OC2OC(CN)C(O)C2O)C2OC(n3ccc(=O)[nH]c3=O)C(O)C2O)C(=O)N(C)C1C(=O)O (stereo not shown) [Compound VII-C] |  |  | 0.78 | >50 | 12.5 |  | 
CCCCCCCCCC(=O)OC1CN(C)C(C(OC2OC(CN)C(O)C2O)C2OC(n3ccc(=O)[nH]c3=O)C(O)C2O)C(=O)N(C)C1C(=O)O (stereo not shown) [Compound VII-D] |  |  | 0.78 | 3.13 | 3.13 |  | 
CCCCCCCCCCC(=O)OC1CN(C)C(C(OC2OC(CN)C(O)C2O)C2OC(n3ccc(=O)[nH]c3=O)C(O)C2O)C(=O)N(C)C1C(=O)O (stereo not shown) [Compound VII-E] |  |  | 0.39 | 1.56 | 1.56 |  | 
CCCCCCCCCCCC(=O)OC1CN(C)C(C(OC2OC(CN)C(O)C2O)C2OC(n3ccc(=O)[nH]c3=O)C(O)C2O)C(=O)N(C)C1C(=O)O (stereo not shown) [Compound VII-F, caprazol-3′″-dodecanoyl Ester Derivative] |  |  | 0.78 | 3.13 | 0.78 |  | 
CCCCCCCCCCCC(=O)OC1CN(C)C(C(OC2OC(CN)C(O)C2O)C2OC(n3ccc(=O)[nH]c3=O)C(O)C2O)C(=O)N(C)C1C(=O)OC (stereo not shown) [Compound VII-G, caprazol-1′″-methyl-ester-3′″-dodecanoyl-ester Derivative] |  |  | 50 | >100 | >100 |  | 
CCCCCCCCC=CCCCCCCCC(=O)OC1CN(C)C(C(OC2OC(CN)C(O)C2O)C2OC(n3ccc(=O)[nH]c3=O)C(O)C2O)C(=O)N(C)C1C(=O)O (stereo not shown) [Compound VII-R] |  |  | 6.25 | 3.13 | 1.56 |  | 
CCCCCCCCCCN1C(=O)C(C(O)CN(C)C(C(=O)NC)C(OC2OC(CN)C(O)C2O)C2OC(n3ccc(=O)[nH]c3=O)C(O)C2O)N(C)C1=O (stereo not shown) [Compound VIII-E] |  |  |  | 6.25 | 25 | 6.25 | 
CCCCCCCCCCCN1C(=O)C(C(O)CN(C)C(C(=O)NC)C(OC2OC(CN)C(O)C2O)C2OC(n3ccc(=O)[nH]c3=O)C(O)C2O)N(C)C1=O (stereo not shown) [Compound VIII-F] |  |  |  | 6.25 | 25 | 6.25 | 
CCCCCCCCCCCCN1C(=O)C(C(O)CN(C)C(C(=O)NC)C(OC2OC(CN)C(O)C2O)C2OC(n3ccc(=O)[nH]c3=O)C(O)C2O)N(C)C1=O (stereo not shown) [Compound VIII-G] |  |  |  | 6.25 | 25 | 12.5 | 
CCCCCCCCCCCCC[C@@H](CC(=O)O[C@H]1CN(C)[C@@H](C(O[C@@H]2O[C@H](CN)[C@@H](O)[C@H]2O)[C@H]2O[C@@H](n3ccc(=O)[nH]c3=O)[C@H](O)[C@@H]2O)C(=O)N(C)[C@@H]1C(=O)O)OC(=O)C[C@H](C)CC(=O)O[C@@H]1O[C@H](C)[C@@H](OC)[C@@H](OC)[C@H]1OC (stereo partly shown) [caprazamycin A] |  |  |  |  |  |  | high antibacterial activities
CCCCCCCCCCCC[C@@H](CC(=O)O[C@H]1CN(C)[C@@H]([C@H](O[C@@H]2O[C@H](CN)[C@@H](O)[C@H]2O)[C@H]2O[C@@H](n3ccc(=O)[nH]c3=O)[C@H](O)[C@@H]2O)C(=O)N(C)[C@@H]1C(=O)O)OC(=O)C[C@H](C)CC(=O)O[C@@H]1O[C@@H](C)C(OC)[C@@H](OC)[C@H]1OC (stereo partly shown) [caprazamycin C] |  |  |  |  |  |  | high antibacterial activities
CCCCCCCCCCC[C@@H](CC(=O)O[C@H]1CN(C)[C@@H](C(O[C@@H]2O[C@H](CN)[C@@H](O)[C@H]2O)[C@H]2O[C@@H](n3ccc(=O)[nH]c3=O)[C@H](O)[C@@H]2O)C(=O)N(C)[C@@H]1C(=O)O)OC(=O)C[C@H](C)CC(=O)O[C@@H]1O[C@H](C)[C@@H](OC)[C@@H](OC)[C@H]1OC (stereo partly shown) [caprazamycin E] |  |  |  |  |  |  | high antibacterial activities
CO[C@H]1[C@@H](OC)[C@H](OC(=O)C[C@@H](C)CC(=O)O[C@@H](CCCCCCCCC(C)C)CC(=O)O[C@H]2CN(C)[C@@H](C(O[C@@H]3O[C@H](CN)[C@@H](O)[C@H]3O)[C@H]3O[C@@H](n4ccc(=O)[nH]c4=O)[C@H](O)[C@@H]3O)C(=O)N(C)[C@@H]2C(=O)O)O[C@H](C)[C@H]1OC (stereo partly shown) [caprazamycin F] |  |  |  |  |  |  | high antibacterial activities
caprazamycin B |  |  |  |  |  |  | high antibacterial activities
